Assays:
wild-type neutrophils = test: Secretion by wild-type neutrophils; type: cell-based
[1] = system: Nlrp3^A350V cre ERT2 mice; test: Nlrp3 A350V cre ERT2 mouse model of cryopyrin-associated periodic syndrome (CAPS); type: in vivo; conditions: 30 mg/Kg i.p.; for Number of leukocytes and leukocyte subtypes: 7 or 13 days, FIG. 9B; for Activation of circulating neutrophils (CD63 upregulation): FIG. 9D; for Neutrophilic infiltration into the kidney (total MMP9 and MPO levels): tissues day 13, FIG. 9F
Method: […] cre ERT2 and control mice were injected i.p. with 50 mg/kg tamoxifen followed by C6 (30 mg/Kg) or vehicle as described. B) Total leukocytes numbers and subtypes were not affected. C) Animals suffer weight loss with disease progression. D) The activation of circulating neutrophils is attenuated by C6. E, The percentage of immature (pro-inflammatory, Ly6G-) neutrophils in circulation (blood) in Nlrp3^A350V is attenuated by treatment with C6 (4.29%) as compared to vehicle (11.0%). […] F, The protection was specific for kidneys.
In this model, disease is caused by the Nlrp3^A350V mutations. The Nlrp3^A350V inducible mouse model (MWS CreT) is homologous to humans suffering from CAPS with the Muckle-Wells A352V mutation in the NLRP3 gene. The tamoxifen inducible Nrp3^A350V cre ERT2 and control animals were injected (i.p.) with 50 mg/kg tamoxifen free base to induce disease (J Immunol 189, 2707-2711, doi:10.4049/jimmunol.1101737 (2012)). The mice (6-12 weeks old) had access to food and water ad libitum. All animal studies were performed in compliance with the U.S. Department of Health and Human Services Guide for the Care and Use of Laboratory Animals and according to NIH and institutional guidelines. All animal protocols and procedures were approved by the University of California San Diego Institutional Animal Care and Use Committees (IACUC). Mice were treated with the neutrophil specific inhibitor NEIa-C6 or vehicle (5% DMSO in PBS). In this model, NLRP3^A350V disease develops progressively in 15 days after first induction with tamoxifen. Between day 0 and day 5 mice were injected (i.p) every other day with tamoxifen followed by NEIa-C6 (30 mg/Kg) or vehicle. Next, administration of NEIa-C6 or vehicle continued until day 13, in the absence of tamoxifen. Blood samples were obtained at day 7 and blood and tissues harvested at day 13. […] The effect was specific for kidneys as lung and liver infiltration was unaffected (FIG. 9G).

[2] = system: human neutrophils (specific granule marker CD66b); test: Flow cytometry of specific granule exocytosis (CD66b) in human neutrophils; type: cell-based; conditions: 1 hour, GM-CSF + fMLP
Text: Human neutrophils were isolated from normal donor's blood by Ficoll density centrifugation, as described previously (23). Murine bone marrow-derived neutrophils were isolated using a Percoll gradient fractionation system as described (24). A three-layer Percoll gradient was used (52%, 64%, and 72%), and neutrophils were isolated from the 64-72% interface, washed, and used in the assays.
Method: The up-regulation of granule membrane-associated neutrophil markers at the plasma membrane was analyzed by flow cytometry. In these studies, flow cytometry analysis was performed by resuspension of 1×10^6 human neutrophils in phenol red-free RPMI 1640 medium, treated with a 10 μM solution of Inhibitors C1, C2, C4, C5, and C6 and Nexinhib 20 (C20) or DMSO control for 1 hour, and stimulated with physiological agonists GM-CSF (10 ng/ml) for 30 min followed by the addition of fMLP (1 μM) to induce degranulation or left untreated at 37 °C (non-stimulated, NS). The reactions were stopped by transferring the samples to ice and immediately spinning down the cells to initiate blocking and staining. To analyze the plasma membrane expression of plasma membrane markers, the cells were blocked in ice-cold PBS containing 1% BSA and stained with phycoerythrin (PE)-, FITC-, or Alexa647-conjugated anti-human CD63, CD66b, MMP9, and CD11b antibodies that detect extracellular epitopes of these markers. The cells were then washed and fixed in 1% paraformaldehyde in PBS. Samples were analyzed using a NovoCyte flow cytometer, and the data were processed using FlowJo software.

[3] = system: neutrophils that carry the NLRP3 A350V mutation; test: Secretion by bone-marrow-derived neutrophils from Nlrp3 A350V (CAPS) mice; type: cell-based, mouse; conditions: 10 μM, 1 hour, LPS and fMLF
Text: FIG. 8A-C. […] A, gelatinase (MMP9) granules; B, azurophilic granules (MPO, myeloperoxidase); C, CD63 (an endolysosomal marker). […] Subsequently, neutrophils were either stimulated with lipopolisacharide (LPS) and the chemotatctic peptide fMLF or left untreated. C20 (Nexinhib20 is used as control). Mean±SEM, n=3. In this and subsequent figures, p<0.05; **, p<0.01; ***, p<0.001; ****, p<0.0001, ANOVA.
These compounds are now tested using neutrophils from a mouse model of Cryopyrin-Associated Periodic Syndrome (CAPS), a systemic inflammatory disease in humans, caused by gain-of-function mutations of the NOD-like receptor family member, cryopirin, also known as NLRP3 (J Cin Immunol 39, 277-286, doi:10.1007/s10875-019-00638-z (2019)). Heterozygous NLRP3 mutations lead to hyper-responsive NLRP3 inflammasome function characterized by increased caspase-1 (Casp1) activation and […], and is observed in patients and in animal models with NLRP3-gain-of-function mutations. […] Subsequently, neutrophils were either stimulated with LPS and the chemotatctic peptide fMLF or left untreated.

SMILES: CCN(CC)CCNC(=O)/C(=C/c1cccc([N+](=O)[O-])c1)n1cncn1 [154 (C6)]
- Inhibitory effect on wild-type neutrophils (wild-type neutrophils): selective inhibitory effect on wild-type neutrophils
- Number of leukocytes and leukocyte subtypes ([1]; listed as C6): not affected
- Number of leukocytes and leukocyte subtypes ([1]; listed as NEIa-C6): did not affect the number of any leukocyte subtype
- Neutrophil mediated inflammation in vivo ([1]; FIG. 9): inhibits neutrophil mediated inflammation in vivo
- Activation of circulating neutrophils (CD63 upregulation) ([1]; listed as C6): attenuated
- Activation of circulating neutrophils (CD63 upregulation) ([1]; listed as NEIa-C6): decreased neutrophil activation in vivo
- Lung and liver neutrophilic infiltration ([1]; FIG. 9G): unaffected
- Neutrophilic infiltration into the kidney (total MMP9 and MPO levels) ([1]; listed as C6): significantly decreased
- Neutrophilic infiltration into the kidney (total MMP9 and MPO levels) ([1]; listed as NEIa-C6): significantly protected kidneys from neutrophilic infiltration
- Percentage of immature (pro-inflammatory, Ly6G-) neutrophils in blood ([1]; vehicle 11.0%, FIG. 9E): 4.29%
- Weight loss ([1]; vs vehicle, FIG. 9C): partially protected from weight loss
- Number of pro-inflammatory immature neutrophils in blood ([1]; vs vehicle, FIG. 9E): decreased the number of pro-inflammatory immature neutrophils in blood
- Inhibition of CD66b up-regulation ([2]; 10 μM, relative to DMSO, FIG. 5): reduced the up-regulation of CD66b
- inhibition at 10 µM ([2]; Homo sapiens, Neutrophil, N=12 donors, FIG. 5, read-out: % inhibition of CD66b up-regulation): 42.3%
- Mobilization of azurophilic granules (MPO) ([3]; FIG. 8): inhibit the mobilization
- Mobilization of gelatinase granules (MMP9) ([3]; FIG. 8): inhibit the mobilization of gelatinase granules (MMP9)
- Neutrophil secretion (hyperactivation of secretion) ([3]; Nlrp3 A350V and wild type, FIG. 8A-C): inhibit the hyperactivation of secretion
- Mobilization of CD63 ([3]; murine neutrophils, FIG. 8): significantly inhibited the mobilization of CD63

Source: patent US20260355189A1, “SMALL MOLECULE INHIBITORS OF NEUTROPHIL EXOCYTOSIS AND INFLAMMATION” (THE SCRIPPS RESEARCH INSTITUTE, priority 2022, published 2026)
